Reference: patent US8329683B2 (Nexgenix Pharmaceuticals, LLC, priority 2006, dated 2012)
Like-named read-outs stand apart in the source and are kept apart here.

Key:
[1] = toluene
HSP90 = HSP90 affinity in a competition assay with geldanamycin; format: binding
[2] = rcm bond, 14-membered ring, Grubbs II (10 mol%), toluene, 2.0 mM, 80.0 °C
phospho-Akt = assay: Western blot of phospho-Akt in Nf2-/- mouse Schwann cells; format: cell-based; conditions: 0.02 μM, 0.5 μM, 24 hours, dose- and time-dependent
Source text: (§1) It has been shown that inhibition of HSP90 function in breast cancer cells causes down-regulation of Akt (Basso et al., 2002, J. Biol. Chem. 277(42): 39858-39866). The inventors of the present invention have determined that phospho-Akt levels are elevated in Nf1−/− mouse Schwann cells, NF2 defient human schwannomas, NF2-deficient meningioma xenografts, NF2-deficient mesothelioma xenografts as compared to wild-type mouse Schwann cells and/or normal human peripheral nerves (reference is made to PCT/US2007/70366 application entitled “Treatment of Neurofibromatosis with Inhibitors of a Signal Transduction Pathway,” filed on Jun. 4, 2007, which is herein incorporated by reference in its entirety). To assess the effect of HSP90 inhibitors on phospho-Akt in NF2 deficient cells, Western blots were prepared from Nf2−/− mouse Schwann cells as an example. The cells were treated with 0.02 μM, 0.5 μM NXD30001 for 24 hours. As control the same cells were treated with vehicle DMSO for 24 hours. […] The loss of phospho-Akt was both dose- and time-dependent.

c-Raf [3] = assay: Western blot of c-Raf in NF2-deficient cells; format: cell-based, mouse and human; conditions: NF2-deficient cells (Nf2-/- mouse Schwann, meningioma, mesothelioma); dose- and time-dependent
Source text: (§2) It has been shown that inhibition of HSP90 function in breast cancer cells causes down-regulation of Akt (Basso et al., 2002, J. Biol. Chem. 277(42): 39858-39866). The inventors of the present invention have determined that phospho-Akt levels are elevated in Nf1−/− mouse Schwann cells, NF2 defient human schwannomas, NF2-deficient meningioma xenografts, NF2-deficient mesothelioma xenografts as compared to wild-type mouse Schwann cells and/or normal human peripheral nerves (reference is made to PCT/US2007/70366 application entitled “Treatment of Neurofibromatosis with Inhibitors of a Signal Transduction Pathway,” filed on Jun. 4, 2007, which is herein incorporated by reference in its entirety). To assess the effect of HSP90 inhibitors on phospho-Akt in NF2 deficient cells, Western blots were prepared from Nf2−/− mouse Schwann cells as an example. The cells were treated with 0.02 μM, 0.5 μM NXD30001 for 24 hours. […]
(§3) To assess the effect of the compounds of the present invention on ErbB2 and c-Raf in NF2-deficient cells, Western blots were prepared from various NF2-deficient cells, including Nf2−/− mouse Schwann cells, NF2-deficient meningioma cells, and NF2-deficient mesothelioma cells. […] The inventors of the present invention have determined that treatment of NF2-deficient cells with NXD30001 caused a decline of both ErbB2 and c-Raf levels (FIG. 1A). […]

HSP70 = assay: Western blot of HSP70 in NF2-deficient cells; format: cell-based, mouse and human; conditions: dose-dependent
Source text: as §1
To assess the effect of the compounds of the present invention on HSP70 in NF2-deficient cells, Western blots were prepared from various NF2-deficient cells, including […], NF2-deficient schwannoma cells, NF2-deficient meningioma cells, and NF2-deficient mesothelioma cells. […]

[4] = system: NF1- and NF2-deficient human and mouse cells; assay: Cell proliferation assay (ATPlite); format: cell-based; conditions: 3 days culture; IC50 values only in FIG. 3
Protocol: Inhibitors of HSP90 function is assayed for the ability to decrease the number of NF2 deficient tumor cells in a tumor, i.e., shrink a tumor, or reduce the proliferation of NF2 deficient tumor cells. The ability of inhibitors to decrease the number of NF2 deficient tumor cells in a sample or reduce proliferation of NF2 deficient tumor cells is assessed using a variety of methods known in the art. A small library of compounds of the present invention (total 14 oxime compounds) were assayed for inhibition of proliferation of NF1- and NF2-deficient cells. Cells used are Nf2−/− mouse embryonic stem cell (MESC), NF2-deficient human SF1335 meningioma cells, NF2-deficient HEI193 schwanoma cells, NF2-deficient BAR and RAV mesothelioma cells, NF2-plus BLA mesothelioma cells, and NF1-deficient human malignant peripheral nerve sheath tumor (MPNST) cells. Appropriate number of cells that can reach ˜70% confluence in 3 days (2000-6000 cells/well) were plated in 96-well plates. Various concentrations of each compound were added to the growing media and the cells were then cultured for 3 days. A positive control compound (17-AAG) and a vehicle (DMSO) control were included with each assay. […] Viable cells were measured by detecting luminescence generated from reaction of ATPlite solution and the ATP in the cells.

ErbB2 = assay: Western blot of ErbB2 in NF2-deficient cells; format: cell-based, mouse and human; conditions: NF2-deficient cells (Nf2-/- mouse Schwann, meningioma, mesothelioma); dose- and time-dependent
Source text: as §2, §3

c-Raf [5] = assay: Immunoblot of client protein degradation in ST88-14 MPNST cells; format: cell-based, human; conditions: ST88-14 cells, 24 hr treatment, 8-1000 nM; read-out: IC50 of induced degradation of c-Raf
Protocol: (§4) Ras-Raf-Mek-Erk1/2 pathway is activated due to the loss of NF1 in these cells. In addition, EGFR is overexpressed in a number of NF1-deficient human and mouse cells. Human malignant peripheral nerve sheath tumor (MPNST) cell ST88-14 was treated with increasing concentration (8-1000 nM) of NXD30001 for 24 hr. Cells were lysed and clarified lysates were subjected SDS-PAGE, followed by immunoblot analysis using indicated antibodies. […] Equal lysate protein loading is shown by actin immunoblot.

Akt = assay: as above; format: cell-based, human; conditions: ST88-14 cells, 24 hr treatment, 8-1000 nM; read-out: IC50 of induced degradation of Akt
Protocol: as §4

EGFR = assay: as above; format: cell-based, human; conditions: ST88-14 cells, 24 hr treatment, 8-1000 nM; read-out: IC50 of induced degradation of EGFR
Protocol: as §4

Cdk4 = assay: as above; format: cell-based, human; conditions: ST88-14 cells, 24 hr treatment, 8-1000 nM; read-out: IC50 of induced degradation of Cdk4
Protocol: as §4

[6] = cited from earlier work

Q: Which ring closure, yield of all isomers ([1]; from CCOCOc1cc(OCOCC)c(C(=O)O)c(CC(C=CCCC=CCCO)=NOCC(=O)N2CCCCC2)c1Cl, ester bond, PPh3/DIAD, 30.9 mM, 23.0 °C, 5.0 h) does the source give for `CCOCOc1cc(OCOCC)c2c(c1Cl)CC(=NOCC(=O)N1CCCCC1)C=CCCC=CCCOC2=O` here?
A: The ring closure, yield of all isomers was 60%.

Q: For `C[C@@H]1C/C=C/CC/C=C/C(=O)Cc2c(Cl)c(O)cc(O)c2C(=O)O1` [pochonin D], which IC50 (HSP90) is on record?
A: Its IC50 is 80 nM.

Q: With `CCOCOc1cc2c(c(OCOCC)c1)C(=O)OC(C)CC=CCCC=CC(=O)C2` (stereo not shown) as the molecule, how does the ring closure, isolated yield ([2]; 2 steps) read?
A: Its ring closure, isolated yield is 40%.

Q: For `O=C1OCC/C=C/CC/C=C/C(=N/OCC(=O)N2CCCCC2)Cc2c(Cl)c(O)cc(O)c21` [NXD30001], which phospho-Akt levels (phospho-Akt) is on record?
A: Its phospho-Akt levels is “decline of phospho-Akt levels”.

Q: And the c-Raf levels (c-Raf [3])?
A: Its c-Raf levels is “decline”.

Q: And the HSP70 protein level (HSP70)?
A: The HSP70 protein level was “upregulation of HSP70”.

Q: And the “inhibition of cell proliferation” value [4]?
A: The value was “Inhibit Proliferation”.

Q: And the ErbB2 levels (ErbB2)?
A: Its ErbB2 levels is “decline”.

Q: What about the IC50 (c-Raf [5]) of the same molecule?
A: Its IC50 is about 100 nM.

Q: And the IC50 (Akt)?
A: Its IC50 is about 100 nM.

Q: And the IC50 (EGFR)?
A: Its IC50 is about 100 nM.

Q: What about the IC50 (Cdk4) of the same molecule?
A: The IC50 was about 100 nM.

Q: With `C[C@@H]1CC2O[C@@H]2CC/C=C/C(=O)Cc2c(Cl)c(O)cc(O)c2C(=O)O1` (stereo partly shown) [pochonin A] as the molecule, how does the IC50 (HSP90) read?
A: Its IC50 is 90 nM.

Q: Which ring closure, yield of all isomers ([1]; from C=CCC/C=C/C(=O)Cc1c(Cl)c(O[Si](C)(C)C(C)(C)C)cc(O[Si](C)(C)C(C)(C)C)c1C(=O)O[C@H](C)CC=C, rcm bond, Grubbs II, 2.0 mM, 80.0 °C, 12.0 h) does the source give for `C[C@@H]1CC=CCC/C=C/C(=O)Cc2c(Cl)c(O[Si](C)(C)C(C)(C)C)cc(O[Si](C)(C)C(C)(C)C)c2C(=O)O1` here?
A: The ring closure, yield of all isomers was 87%.

Q: With `C[C@@H]1CC=CCC/C=C/C(=O)Cc2c(Cl)c(OCOCC[Si](C)(C)C)cc(OCOCC[Si](C)(C)C)c2C(=O)O1` as the molecule, how does the ring closure, yield of all isomers ([1]; from C=CCC/C=C/C(=O)Cc1c(Cl)c(OCOCC[Si](C)(C)C)cc(OCOCC[Si](C)(C)C)c1C(=O)O[C@H](C)CC=C, rcm bond, Grubbs II, 2.0 mM, 80.0 °C, 12.0 h) read?
A: Its ring closure, yield of all isomers is 87%.

Q: For `C[C@@H]1C[C@H]2O[C@@H]2/C=C\C=C\C(=O)Cc2c(Cl)c(O)cc(O)c2C(=O)O1` [radicicol, Radicicol, reference compound], which “in vivo anti-tumor activity” value [6] is on record?
A: Its value is “no in vivo anti-tumor activity”.

Q: For `CCOCOc1cc(OCOCC)c2c(c1Cl)CC(=O)C=CCCC=CC[C@@H](C)OC2=O`, which ring closure, yield of all isomers ([1]; from C=CCCC=CC(=O)Cc1c(Cl)c(OCOCC)cc(OCOCC)c1C(=O)O[C@H](C)CC=C, rcm bond, Grubbs II, 2.0 mM, 80.0 °C) is on record?
A: The ring closure, yield of all isomers was 94%.

Q: With `CCOCOc1cc(OCOCC)c2c(c1Cl)CC(=O)C=CCCC=CCC(C)OC2=O` (stereo not shown) as the molecule, how does the ring closure, isolated yield [2] read?
A: The ring closure, isolated yield was 94%.

Q: With `CCOCOc1cc2c(c(OCOCC)c1)C(=O)O[C@H](C)CC=CCCC=CC(=O)C2` as the molecule, how does the ring closure, yield of all isomers ([1]; from C=CCCC=CC(=O)Cc1cc(OCOCC)cc(OCOCC)c1C(=O)O[C@H](C)CC=C, rcm bond, Grubbs II, 2.0 mM, 80.0 °C, 2 steps) read?
A: The ring closure, yield of all isomers was 40%.
